Measurements: patent US8828907B2, “Active ingredient combinations having insecticidal and acaricidal properties” (Bayer CropScience AG, priority 2009, dated 2014)

Experiments:
Format in all cases: in vivo
Conditions in all cases: single active compound
[1] = tested on: larvae of the mustard beetle (Phaedon cochleariae); test: Phaedon cochleariae larvae test (sprayed cabbage leaves)
Method: (§1) Solvents: 78 parts by weight of acetone • • 1.5 parts by weight of dimethylformamide
(§2) Emulsifier: 0.5 part by weight of alkylaryl polyglycol ether
(§3) To produce a suitable preparation of active compound, 1 part by weight of active compound is mixed with the stated amount of solvent and emulsifier, and the concentrate is diluted with emulsifier-containing water to the desired concentration.
Cabbage leaves (Brassica oleracea) are treated by spraying with the active ingredient formulation of the desired concentration and populated with larvae of the mustard beetle (Phaedon cochleariae) while the leaves are still moist.
After the desired period of time, the kill in % is determined. 100% means that all beetle larvae have been killed; 0% means that none of the beetle larvae have been killed. The kill rates determined are entered into Colby's formula (see above).

[2] = tested on: larvae of the armyworm (Spodoptera frugiperda); test: Spodoptera frugiperda larvae test (sprayed cabbage leaves)
Method: as §1, §2, §3
Cabbage leaves (Brassica oleracea) are treated by being sprayed with the preparation of active compound of the desired concentration and are populated with larvae of the armyworm (Spodoptera frugiperda) while the leaves are still moist.
After the desired period of time, the kill in % is determined. 100% means that all caterpillars have been killed; 0% means that none of the caterpillars have been killed. The kill rates determined are entered into Colby's formula (see above).

[3] = tested on: greenhouse red spider mite (Tetranychus urticae); test: Tetranychus urticae test (OP-resistant/spray treatment)
Method: as §1, §2, §3
Discs of bean leaves (Phaseolus vulgaris) which are infested by all stages of the greenhouse red spider mite (Tetranychus urticae) are sprayed with an active compound preparation of the desired concentration.
After the desired period of time, the effect in % is determined. 100% means that all of the spider mites have been killed; 0% means that none of the spider mites have been killed.

[4] = tested on: green peach aphid (Myzus persicae); test: Myzus persicae test (spray on infested cabbage leaves)
Method: as §1, §2, §3
Cabbage leaves (Brassica oleracea) which are heavily infested by the green peach aphid (Myzus persicae) are treated by spraying with the active compound preparation of the desired concentration.
After the desired period of time, the kill in % is determined. 100% means that all of the aphids have been killed; 0% means that none of the aphids have been killed. The kill rates determined are entered into Colby's formula (see above).

Compound	Kill in % after 2d ([1]; 4 g/ha)	Kill in % after 2d ([1]; 100 g/ha)	Kill in % after 2d ([2]; 0.16 g/ha)	Kill in % after 2d ([2]; 0.8 g/ha)	Kill in % after 2d ([2]; 20 g/ha)	Kill in % after 6d ([3]; 20 g/ha)	Kill in % after 1d ([4]; 4 g/ha)	Kill in % after 2d ([2]; 4 g/ha)	Kill in % after 6d ([3]; 100 g/ha)	Kill in % after 1d ([4]; 0.8 g/ha)
O=C1C=C(N(CCF)Cc2ccc(Cl)nc2)CO1 [compound (I-4), 4-{[(6-chloropyrid-3-yl)methyl](2-fluoroethyl)amino}furan-2(5H)-one]	0%	0%	0%	0%	0%	0%	30%			
O=C1C=C(N(Cc2ccc(Cl)nc2)CC(F)F)CO1 [compound (I-5), 4-{[(6-chloropyrid-3-yl)methyl](2,2-difluoroethyl)amino}furan-2(5H)-one]	0%	0%		0%		0%		0%	0%	
CN(Cc1cnc(Cl)c(F)c1)C1=CC(=O)OC1 [compound (I-6), 4-{[(6-chloro-5-fluorpyrid-3-yl)methyl](methyl)amino}furan-2(5H)-one]		0%		0%	0%					70%
O=C(NC(=O)c1c(F)cccc1F)Nc1ccc(Oc2ccc(C(F)(F)F)cc2Cl)cc1F [flufenoxuron, reference compound]		0%		33%		0%	0%			0%
O=C(NC(=O)c1c(F)cccc1F)Nc1cc(Cl)c(OC(F)(F)C(F)C(F)(F)F)cc1Cl (stereo not drawn) [lufenuron, reference compound]		17%					0%			
COc1cccc(C(=O)NN(C(=O)c2cc(C)cc(C)c2)C(C)(C)C)c1C [methoxyfenozide, reference compound]					83%		0%	33%	0%	
O=C(NC(=O)c1ccccc1Cl)Nc1ccc(OC(F)(F)F)cc1 [triflumuron, reference compound]	0%		50%	33%			0%			0%
